{
  "source": "patent EP0144996A2",
  "about": "“Substituted spiro pyridine derivatives, pharmaceutical compositions containing them and processes for the preparation of such compounds and compositions” (SCHERING CORPORATION, priority 1983, dated 1985)",
  "key": {"[1]": {"tested_on": "anaphylactic bronchospasm", "test": "Inhibition of anaphylactic bronchospasm in sensitized guinea pigs with antigen-induced bronchoconstriction", "assay_type": "in vivo", "details": "oral dose of 5 mg/kg", "protocol": "The anti-allergy method of this invention is identified by tests which measure a compound's inhibition of anaphylactic bronchospasm in sensitized guinea pigs having antigen-induced bronchoconstriction. […] The compounds are effective non-adrenergic, non-anticholinergic antianaphylactic agents. When administered orally they are active at doses from about 0.1 to 50 mg/kg of body weight; when administered parenterally, e.g., intravenously, the compounds are active at dosages of from about 0.01 to 5 mg/kg body weight; when administered by inhalation (aerosol or nebulizer) the compounds are active at dosages of about 0.1 to 5 mg per puff, and one to four puffs may be taken every 4 hours."}, "[2]": {"tested_on": "allergen-induced histamine release", "test": "Allergen-induced histamine release from sensitized guinea pig tissue", "assay_type": "cell-based"}, "[3]": {"tested_on": "allergen-induced histamine release", "test": "Allergen-induced histamine release from sensitized human tissue", "assay_type": "cell-based"}},
  "data": [
    {"molecule": "O=C1c2cccnc2N(c2ccccc2)C(=O)C12CCCCO2", "note": "(stereo not drawn) [1-phenyl-3',4',5',6'-tetrahydro-spiro[1,8-naphthyridine-3,2'-(2H)pyran]-2,4-dione]", "values": [
      {"measurement": "inhibition of anaphylactic bronchospasms", "setting": "[1]", "result": "inhibit anaphylactic bronchospasms"},
      {"measurement": "inhibition of allergen-induced histamine release", "setting": "[2]", "result": "inhibit allergen-induced histamine release"},
      {"measurement": "inhibition of allergen-induced histamine release", "setting": "[3]", "result": "inhibit allergen-induced histamine release"}
    ]}
  ]
}
